CCOc1ccccc1C(N)=O
solubility (mole fraction)
Conditions	293.15 K	298.15 K	303.15 K	308.15 K	313.15 K	318.15 K	323.15 K
in acetonitrile	0.00709	0.0091	0.0123	0.0167	0.022	0.0285	0.0377
in ethanol	0.0121	0.0162	0.0198	0.0252	0.0313	0.0392	0.0472
in isopropanol	0.0097	0.0125	0.0155	0.0189	0.024	0.0304	0.0391
in methanol	0.016	0.02	0.0252	0.0306	0.0392	0.0484	0.0596
